In patent US8791102B2, “Acetanilide sphingosine-1-phosphate receptor antagonists” (Exelixis, Inc., priority 2008, dated 2014):

Biological target: T1, human S1P1 receptors (Homo sapiens, UniProt P21453)
T1 construct: host or cells: HEK293
Test: S1P1R antagonist assay (fluorescent membrane potential dye, cAMP readout)
Type: cell-based
Conditions: HEK293 cells expressing human S1P1 receptors and CNG channel; 500 nM NECA; S1P1R agonist 10 nM; 90 minutes; read-out: EC50 or IC50 value

T1 sequence (P21453 whole entry): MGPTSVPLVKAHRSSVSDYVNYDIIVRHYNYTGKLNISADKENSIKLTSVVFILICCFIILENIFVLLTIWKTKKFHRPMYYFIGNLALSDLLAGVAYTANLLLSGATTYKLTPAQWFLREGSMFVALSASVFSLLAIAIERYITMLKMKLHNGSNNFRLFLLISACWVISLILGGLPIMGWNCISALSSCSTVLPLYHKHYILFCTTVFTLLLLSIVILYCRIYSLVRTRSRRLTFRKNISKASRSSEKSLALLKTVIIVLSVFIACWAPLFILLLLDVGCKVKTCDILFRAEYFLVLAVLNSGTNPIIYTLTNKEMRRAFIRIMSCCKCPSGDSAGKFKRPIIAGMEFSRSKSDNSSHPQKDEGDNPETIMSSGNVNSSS

Row | IC50 [nM] | SMILES
1 | ≤ 300 | Cc1cc(CC(=O)NC(COCc2ccccc2)C(=O)Nc2ccc(Oc3ccccc3)cc2)on1 (centres unmarked) [Compound 185, 2-(2-(3-methylisoxazol-5-yl)acetamido)-3-benzyloxy-N-(4-phenoxyphenyl)propanamide]
2 | 300 to 1000 | O=C(CCC(=O)C1CC1)NC(COCc1ccccc1)C(=O)Nc1ccc(Oc2ccccc2)cc1 (centres unmarked) [Compound 186, N-(3-(benzyloxy)-1-oxo-1-(4-phenoxyphenylamino)propan-2-yl)-4-cyclopropyl-4-oxobutanamide]
3 | 300 to 1000 | O=C(NC(COCc1ccccc1)C(=O)Nc1ccc(Oc2ccccc2)cc1)c1ccc2cc[nH]c2c1 (centres unmarked) [Compound 187, N-(3-(benzyloxy)-1-oxo-1-(4-phenoxyphenylamino)propan-2-yl)-1H-indole-6-carboxamide]
4 | ≤ 300 | Cn1cnc(CC(=O)N[C@@H](COCc2ccccc2)C(=O)Nc2ccc(Oc3ccccc3)cc2)c1 [Compound 195, (S)-2-(2-(1-methyl-1H-imidazol-4-yl)acetamido)-3-benzyloxy-N-(4-phenoxyphenyl)propanamide]
5 | 300 to 1000 | O=C(Cc1ccccc1F)N[C@@H](COCc1ccccc1)C(=O)Nc1ccc(Oc2ccccc2)cc1 [Compound 196, (S)-2-(2-(2-fluorophenyl)acetamido)-3-benzyloxy-N-(4-phenoxyphenyl)propanamide]
6 | 300 to 1000 | O=C(Cc1cccs1)N[C@@H](COCc1ccccc1)C(=O)Nc1ccc(Oc2ccccc2)cc1 [Compound 198, (S)-2-(2-(thien-2-yl)acetamido)-3-benzyloxy-N-(4-phenoxyphenyl)propanamide]
7 | ≤ 300 | O=C(Cc1cnc[nH]1)N[C@@H](COCc1ccccc1)C(=O)Nc1ccc(Cc2ccccc2)cc1 [Compound 200, (S)-2-(2-(1H-imidazol-4-yl)acetamido)-3-(benzyloxy)-N-(4-benzylphenyl)propanamide]
8 | ≤ 300 | COc1ccc(Oc2ccc(NC(=O)[C@H](COCc3ccccc3)NC(=O)Cc3c[nH]cn3)cc2)cc1 [Compound 202, (S)-2-(2-(1H-imidazol-4-yl)acetamido)-3-(benzyloxy)-N-(4-(4-methoxyphenoxy)phenyl)propanamide]
9 | 300 to 1000 | O=C(Cc1cnc[nH]1)N[C@@H](Cc1ccccc1)C(=O)Nc1ccc(Oc2ccc(Cl)cc2)cc1 [Compound 204, (S)-2-(2-(1H-imidazol-5-yl)acetamido)-N-(4-(4-chlorophenoxy)phenyl)-3-phenylpropanamide]
10 | ≤ 300 | O=C(CN1CCNCC1)N[C@@H](COCc1ccccc1)C(=O)Nc1ccc(Oc2ccc(F)cc2)cc1 [Compound 205, (S)-3-(benzyloxy)-N-(4-(4-fluorophenoxy)phenyl)-2-(2-(piperazin-1-yl)acetamido)propanamide]
11 | 300 to 1000 | O=C(Cc1c[nH]cn1)N[C@@H](COCc1ccccc1)C(=O)Nc1ccc(Oc2nccs2)cc1 [Compound 206, (S)-2-(2-(1H-imidazol-4-yl)acetamido)-3-(benzyloxy)-N-(4-(thiazol-2-yloxy)phenyl)propanamide]
12 | ≤ 300 | O=C(CCc1cnc[nH]1)N[C@@H](COCc1ccccc1)C(=O)Nc1ccc(Oc2ccc(F)cc2)cc1 [Compound 207, (S)-2-(3-(1H-imidazol-5-yl)propanamido)-3-(benzyloxy)-N-(4-(4-fluorophenoxy)phenyl)propanamide]
13 | 300 to 1000 | O=C(Cc1cnc[nH]1)N[C@@H](COCc1ccccc1)C(=O)Nc1ccc(OC2CCCCC2)cc1 [Compound 208, (S)-2-(2-(1H-imidazol-5-yl)acetamido)-3-(benzyloxy)-N-(4-(cyclohexyloxy)phenyl)propanamide]
14 | 300 to 1000 | CN(C)CCC(=O)N[C@@H](COCc1ccccc1)C(=O)Nc1ccc(Oc2ccc(Cl)cc2)cc1 [Compound 209, (S)-3-(benzyloxy)-N-(4-(4-chlorophenoxy)phenyl)-2-(3-(dimethylamino)propanamido)propanamide]
15 | ≤ 300 | O=C(Cc1c[nH]cn1)N[C@@H](COCc1ccccc1)C(=O)Nc1ccc(OCc2ccccc2)cc1 [Compound 211, (S)-2-(2-(1H-imidazol-4-yl)acetamido)-3-(benzyloxy)-N-(4-(benzyloxy)phenyl)propanamide]
16 | ≤ 300 | O=C(CN1CC=CC1)N[C@@H](COCc1ccccc1)C(=O)Nc1ccc(Oc2ccc(F)cc2)cc1 [Compound 214, (S)-3-(benzyloxy)-2-(2-(2,5-dihydro-1H-pyrrol-1-yl)acetamido)-N-(4-(4-fluorophenoxy)phenyl)propanamide]
17 | 300 to 1000 | O=C(CN1CCCC1)N[C@@H](COCc1ccccc1)C(=O)Nc1ccc(Oc2ccc(F)cc2)cc1 [Compound 215, (S)-3-(benzyloxy)-N-(4-(4-fluorophenoxy)phenyl)-2-(2-(pyrrolidin-1-yl)acetamido)propanamide]
18 | 300 to 1000 | O=C(CNCCc1c[nH]cn1)N[C@@H](COCc1ccccc1)C(=O)Nc1ccc(Oc2ccc(F)cc2)cc1 [Compound 216, (S)-2-(2-(2-(1H-imidazol-4-yl)ethylamino)acetamido)-3-(benzyloxy)-N-(4-(4-fluorophenoxy)phenyl)propanamide]
19 | 300 to 1000 | O=C(CN1CCC(Cc2ccccc2)CC1)N[C@@H](COCc1ccccc1)C(=O)Nc1ccc(Oc2ccc(F)cc2)cc1 [Compound 220, (S)-3-(benzyloxy)-2-(2-(4-benzylpiperidin-1-yl)acetamido)-N-(4-(4-fluorophenoxy)phenyl)propanamide]
20 | 300 to 1000 | O=C(CN1CCC2CCCCC2C1)N[C@@H](COCc1ccccc1)C(=O)Nc1ccc(Oc2ccc(F)cc2)cc1 (stereo partly drawn) [Compound 222, (2S)-3-(benzyloxy)-N-(4-(4-fluorophenoxy)phenyl)-2-(2-(octahydroisoquinolin-2(1H)-yl)acetamido)propanamide]

Continued, compound first:

Row | SMILES | IC50 [nM]
21 | O=C(NC(COCc1ccccc1)C(=O)Nc1ccc(Oc2ccccc2)cc1)C1Cc2ccccc2C1 (centres unmarked) [Compound 188, N-(3-(benzyloxy)-1-oxo-1-(4-phenoxyphenylamino)propan-2-yl)-2,3-dihydro-1H-indene-2-carboxamide] | 300 to 1000
22 | Cc1cccc(C(=O)NC(COCc2ccccc2)C(=O)Nc2ccc(Oc3ccccc3)cc2)c1[N+](=O)[O-] (centres unmarked) [Compound 189, N-(3-(benzyloxy)-1-oxo-1-(4-phenoxyphenylamino)propan-2-yl)-3-methyl-2-nitrobenzamide] | 300 to 1000
23 | O=C(Cc1cc(Cl)ccc1Cl)NC(COCc1ccccc1)C(=O)Nc1ccc(Oc2ccccc2)cc1 (centres unmarked) [Compound 190, 3-(benzyloxy)-2-(2-(2,5-dichlorophenyl)acetamido)-N-(4-phenoxyphenyl)propanamide] | 300 to 1000
24 | O=C(Cc1cccc(Cl)c1F)NC(COCc1ccccc1)C(=O)Nc1ccc(Oc2ccccc2)cc1 (centres unmarked) [Compound 191, 3-(benzyloxy)-2-(2-(3-chloro-2-fluorophenyl)acetamido)-N-(4-phenoxyphenyl)propanamide] | 300 to 1000
25 | O=C(Cc1cc(Cl)ccc1F)NC(COCc1ccccc1)C(=O)Nc1ccc(Oc2ccccc2)cc1 (centres unmarked) [Compound 192, 3-(benzyloxy)-2-(2-(5-chloro-2-fluorophenyl)acetamido)-N-(4-phenoxyphenyl)propanamide] | 300 to 1000
26 | CN(CC(=O)N[C@@H](COCc1ccccc1)C(=O)Nc1ccc(Oc2ccccc2)cc1)C(=O)c1ccccc1 [Compound 194, (S)-2-{2-((benzoyl)(methyl)amino)acetamido}-3-benzyloxy-N-(4-phenoxyphenyl)propanamide] | 300 to 1000
27 | O=C(Cc1cc(Cl)ccc1Cl)N[C@@H](COCc1ccccc1)C(=O)Nc1ccc(Oc2ccccc2)cc1 [Compound 199, (S)-2-(2-(2,5-dichlorophenyl)acetamido)-3-benzyloxy-N-(4-phenoxyphenyl)propanamide] | 300 to 1000
28 | CN(C(=O)Cc1c[nH]cn1)[C@@H](COCc1ccccc1)C(=O)Nc1ccc(Oc2ccccc2)cc1 [Compound 203, (S)-2-(2-(1H-imidazol-4-yl)-N-methylacetamido)-3-(benzyloxy)-N-(4-phenoxyphenyl)propanamide] | ≤ 300
29 | O=C(CN1CCOCC1)N[C@@H](COCc1ccc(F)cc1)C(=O)Nc1ccc(Oc2ccc(F)cc2)cc1 [Compound 210, (S)-3-(4-fluorobenzyloxy)-N-(4-(4-fluorophenoxy)phenyl)-2-(2-morpholinoacetamido)propanamide] | ≤ 300
30 | O=C(Cc1c[nH]c2ccc(F)cc12)N[C@@H](COCc1ccccc1)C(=O)Nc1ccc(Oc2ccc(F)cc2)cc1 [Compound 212, (S)-3-(benzyloxy)-2-(2-(5-fluoro-1H-indol-3-yl)acetamido)-N-(4-(4-fluorophenoxy)phenyl)propanamide] | ≤ 300
31 | CC(C)(C(=O)N[C@@H](COCc1ccccc1)C(=O)Nc1ccc(Oc2ccc(F)cc2)cc1)c1c[nH]cn1 [Compound 213, (S)-2-(2-(1H-imidazol-4-yl)-2-methylpropanamido)-3-(benzyloxy)-N-(4-(4-fluorophenoxy)phenyl)propanamide] | ≤ 300
32 | COc1ccccc1N1CCN(CC(=O)N[C@@H](COCc2ccccc2)C(=O)Nc2ccc(Oc3ccc(F)cc3)cc2)CC1 [Compound 217, (S)-3-(benzyloxy)-N-(4-(4-fluorophenoxy)phenyl)-2-(2-(4-(2-methoxyphenyl)piperazin-1-yl)acetamido)propanamide] | 300 to 1000
33 | O=C(CN1CCN(c2ccc(F)cc2)CC1)N[C@@H](COCc1ccccc1)C(=O)Nc1ccc(Oc2ccc(F)cc2)cc1 [Compound 218, (S)-3-(benzyloxy)-N-(4-(4-fluorophenoxy)phenyl)-2-(2-(4-(4-fluorophenyl)piperazin-1-yl)acetamido)propanamide] | 300 to 1000
34 | O=C(CN1CCc2ccccc2C1)N[C@@H](COCc1ccccc1)C(=O)Nc1ccc(Oc2ccc(F)cc2)cc1 [Compound 221, (S)-3-(benzyloxy)-2-(2-(3,4-dihydroisoquinolin-2(1H)-yl)acetamido)-N-(4-(4-fluorophenoxy)phenyl)propanamide] | 300 to 1000
35 | O=C(CN1CCN(C(=O)c2ccco2)CC1)N[C@@H](COCc1ccccc1)C(=O)Nc1ccc(Oc2ccc(F)cc2)cc1 [Compound 223, (S)-3-(benzyloxy)-N-(4-(4-fluorophenoxy)phenyl)-2-(2-(4-(furan-2-carbonyl)piperazin-1-yl)acetamido)propanamide] | 300 to 1000
